From patent US20050244502A1, “Composition for enhancing absorption of a drug and method” (priority 2004, published 2005)

Tests used:
in vitro = settings: human
in vivo = settings: rat, 1 mg/kg
Description: A dosing solution of DDAVP in water, C971P, LPC or C971P/LPC was directly injected into a 10-cm segment of rat colon. Blood was collected over a 2 hr period to assess the extent of systemic absorption from the various formulations.

Calu-3 cells [1] = experiment: Acute cytotoxicity assay (Alamar Blue) in Calu-3 cells; format: cell-based, human
Description: FIG. 2 depicts an Alamar Blue Assay—Black bar indicates the % of the cell survival after 2 hrs treatment of LPC at 0-0.25%; gray bar indicates the combination of LPC with 0.5% of C971P.
This assay is based on the ability of live cells to enzymatically reduce Alamar blue dye which indicates the relative percentage of cells that survive the exposure to the various treatments. Calu-3 cells exposed to buffer for 2 hr were used as the positive control with 100% cell survival.

Calu-3 cells [2] = experiment: Permeability (Papp) of DDAVP across Calu-3 cell monolayers on Transwell filters; settings: for additive permeability enhancement or change in epithelial resistance in the presence of Carbopol polymers (in words): enhancer with Carbopol polymers (Example 11)
[3] = Intra-nasal DADLE absorption in rabbits; format: in vivo; settings: DADLE 1 mg/kg via syringe microsprayer in rabbit nostril
Description: Intra-nasal delivery of the model pentapepdide DADLE in water, C971P, LPC or C971P/LPC formulation was studied in rabbits. […] The C971P/LPC formulation enhanced DADLE absorption by >50% compared to LPC alone.

Calu-3 cells [4] = experiment: TEER measurement (cell integrity and reversibility) in Calu-3 cells; format: cell-based, human
Description: The asterisk (delete scatters with) (*) represent (delete marker present) those samples where TEER recovered to the original level within 12 hrs after washout of the treatment.
Transepithelial electrical resistance (TEER) measures the integrity of the epithelial barrier. […] Return of the TEER values to initial levels indicates recovery to baseline barrier properties. TEER measurements were done in confluent highly resistant Calu-3 cells cultured in Transwell filters with handheld STX-2 electrodes connected to EVOM Voltohmmeter. […] After the removal of apical treatment, TEER recovered to the original values.

With `NC(=O)CC[C@@H]1NC(=O)[C@H](Cc2ccccc2)NC(=O)[C@H](Cc2ccc(O)cc2)NC(=O)CCSSC[C@@H](C(=O)N2CCC[C@H]2C(=O)N[C@H](CCCN=C(N)N)C(=O)NCC(N)=O)NC(=O)[C@H](CC(N)=O)NC1=O` [DDAVP, 1 deamino-8-D-arginin-vasopressin] the Papp (in vitro) was 0.04 ± 0.003 ×10⁻⁶ cm/s and the bioavailability (in vivo) was 0.1 ± 0.1%.

For `CCCCCCCCCC(=O)[O-].[Na+]` [sodium caprate], the “effect of Carbopol 971P on acute cytotoxicity of the enhancer (in words)” value (Calu-3 cells [1]; enhancer combined with Carbopol 971P, Alamar Blue, Calu-3 cells) was “failed to reduce the acute cytotoxicity” and the “additive permeability enhancement or change in epithelial resistance in the presence of Carbopol polymers (in words)” value (Calu-3 cells [2]) was “do not show additive permeability enhancement advantage or change in epithelial resistance”.

For L-α-lysophosphatidylcholine [LPC], the “DADLE exposure, times higher than water control” value [3] was 2.4 times, the cell survival (Calu-3 cells [1]; 0.05% LPC alone, 2 hr, buffer control = 100%) was “About 82%” and the cell survival (Calu-3 cells [1]; 0.05% LPC with C971P (0.5%) in the formulation, 2 hr) was 95%. The cell survival (Calu-3 cells [1]; 0.1% LPC alone, 2 hr) was 41%, the cell survival (Calu-3 cells [1]; 0.1% LPC in the presence of C971P (0.5%), 2 hr) was over 90% and the “cell survival (in words)” value (Calu-3 cells [1]; LPC alone 0-0.25%, 2 hr) was “dose-dependent reduction in survival”. The “TEER recovery after removal of treatment (in words)” value (Calu-3 cells [4]; 0.05% LPC with C971P also present) was “recovered”, the “TEER change (in words)” value (Calu-3 cells [4]; LPC alone, 2 hr treatment) was “dramatic drop in TEER” and the “extent of TEER drop (in words)” value (Calu-3 cells [4]; LPC with C971P present in the formulation, 2 hr treatment) was “significantly reduced”. For the same compound, the “DDAVP Papp increase compared with 0.5% C971P alone” value (Calu-3 cells [2]; LPC 0.01-0.25% combined with 0.5% C971P, dose-dependent, Calu-3 cells) was “up to 32 fold”.

In the case of Phosphatidylcholine [Lecithin], the “TEER after 2 hr (% initial)” value (Calu-3 cells [4]; Lecithin 1 mM) is reported as “No change”, the “TEER after 2 hr (% initial)” value (Calu-3 cells [4]; Lecithin 2 mM) is reported as “No change” and the “TEER after 2 hr (% initial)” value (Calu-3 cells [4]; Lecithin 5 mM) is reported as “No change”. The “DDAVP permeability enhancement or TEER drop (in words)” value (Calu-3 cells [2]; Carbopol added along with phosphatidylcholine) was “no significant enhancement in permeability or drop in TEER”, the “DDAVP Permeability” value (Calu-3 cells [2]; Lecithin 1 mM) was 0.045 ± 0.003 ×10⁻⁶ cm/s and the “DDAVP Permeability” value (Calu-3 cells [2]; Lecithin 2 mM) was 0.044 ± 0.003 ×10⁻⁶ cm/s. The “DDAVP Permeability” value (Calu-3 cells [2]; Lecithin 5 mM) was 0.044 ± 0.004 ×10⁻⁶ cm/s, the “additive permeability enhancement or change in epithelial resistance in the presence of Carbopol polymers (in words)” value (Calu-3 cells [2]) was “do not show additive permeability enhancement advantage or change in epithelial resistance” and the “DDAVP permeability enhancement or TEER drop (in words)” value (Calu-3 cells [2]; phosphatidylcholine alone, Calu-3 cells) was “failed to show any measurable enhancement or TEER drop”.
